The results in this text go back to patent US10106515B2, “1-(cyclopent-2-en-1-yl)-3-(2-hydroxy-3-(arylsulfonyl)phenyl)urea derivatives as CXCR2 inhibitors” (GLAXOSMITHKLINE INTELLECTUAL PROPERTY DEVELOPMENT LIMITED, priority 2014, dated 2018).

For assay [1], the system named is upregulation of CD11b in GROα stimulated neutrophils in human whole blood. Nature of the assay: Human whole blood assay (CD11b upregulation). Format: cell-based. Particulars: Homo sapiens, Neutrophil, inhibition of CD11b upregulation, GROα 33 nM final, flow cytometry, read-out: pIC50 (human whole blood assay) (converted). The essentials: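 Heparinised human whole blood preincubated 15 min at 37 °C with compound (10-point, 1:3 dilutions), then stimulated with 33 nM final GROα for 15 min at 37 °C. CD11b-FITC/CD16-PE staining on ice, lysis/fixation, flow cytometry; neutrophils gated by side scatter and CD16.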
(Flow cytometry measures light scatter and fluorescence of single cells or particles in a stream.)

Assay [2] deals with Rat oligodendrocyte precursor cells (OPCs). Nature of the assay: OPC differentiation assay. The conditions noted are these: percentage of MBP+ cells. The class given is cell-based. The method, then:
In the oligodendrocyte precursor cell (OPC) in vitro differentiation assay, purified or enriched OPCs are cultured and differentiated into immature oligodendrocytes, mature oligodendrocytes, and myelinating oligodendrocytes (Watkins et al. (2008) Neuron 60:555-569). Specific markers have been identified for each specific stage of OPC differentiation. Myelin basic proteins (MBP), a specific marker for matured and myelinating oligodendrocytes, is used as an indicator for OPC differentiation and maturation (Franklin et al. (2008) J Neurosci, 255 Suppl 1:19-25). The OPC differentiation assay provides a tool to screen the compounds with the potency of promoting OPC differentiation, which is an initial step for downstream remyelination repair in vivo after demyelination occurs in mutiple scelerosis (MS) patients.
Rat oligodendrocyte precursor cells (OPCs) were obtained from P1 pups and were cultured in DMEM/20S medium (DMEM with 20% FBS, 4 mM L-Glutamine, 1 mM sodium pyruvate and penicillin) (Zhang et al. (2007) Nature Protocol 2 (5):1044). […] The plate was read on Cellomics (SN: 04080019LH; P/N no 1-0117) using target activation protocol to calculate the percentage of MBP+ cells to reflect the differentiation of OPCs.

In the case of `CC1=CCC[C@H]1NC(=O)Nc1ccc(Cl)c(S(=O)(=O)[C@@]2(C)CCOC2)c1O` [Compound 195, 1-(4-chloro-2-hydroxy-3-(((S)-3-methyltetrahydrofuran-3-yl)sulfonyl)phenyl)-3-((R)-2-methylcyclopent-2-en-1-yl)urea], the IC50 in assay [1] was 0.0398 µM; in assay [2] (Oligodendrocyte precursor cell, read-out: pIC50 (OPC differentiation assay) (converted)) it was 6.31 µM. Also, the OPC differentiation result in assay [2] is recorded as “promote OPC differentiation”.
